Laboratory results as given in ChEMBL document CHEMBL5226347, “Discovery of Chromane-6-Sulfonamide Derivative as a Potent, Selective, and Orally Available Novel Retinoic Acid Receptor-Related Orphan Receptor γt Inverse Agonist” (J Med Chem, 2021).
≈ marks a conversion by molar mass, not a printed value.

Experiments:
[1] = biological target: T1, Nuclear receptor ROR-gamma (Homo sapiens, UniProt P51449); assay: Displacement of BODIPY from APC-labelled human RORgammat LBD incubated for 15 mins by LANCE detection analysis
T1 sequence (P51449 whole entry): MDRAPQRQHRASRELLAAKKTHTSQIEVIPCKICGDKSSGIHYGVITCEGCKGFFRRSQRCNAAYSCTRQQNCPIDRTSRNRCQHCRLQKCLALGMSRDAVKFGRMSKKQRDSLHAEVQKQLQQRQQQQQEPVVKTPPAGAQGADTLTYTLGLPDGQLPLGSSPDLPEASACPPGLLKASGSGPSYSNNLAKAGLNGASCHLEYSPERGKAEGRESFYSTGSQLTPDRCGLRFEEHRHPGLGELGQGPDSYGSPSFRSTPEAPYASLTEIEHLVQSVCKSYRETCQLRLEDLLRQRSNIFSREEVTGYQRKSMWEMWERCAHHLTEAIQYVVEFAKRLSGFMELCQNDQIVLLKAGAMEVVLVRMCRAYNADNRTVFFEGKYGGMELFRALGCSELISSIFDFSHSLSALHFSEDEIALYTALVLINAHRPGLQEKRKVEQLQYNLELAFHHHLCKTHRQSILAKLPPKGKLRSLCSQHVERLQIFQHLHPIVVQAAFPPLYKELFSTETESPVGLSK

[2] = Lipophilicity, log D of the compound at pH 7.4; format: physicochemical; settings: buffer
[3] = biological target: T1, Nuclear receptor ROR-gamma; assay: Inhibition of RORgammat in human Jurkat cells assessed as inhibition of RORgammat transcriptional activity incubated for 10 mins by luciferase reporter gene assay; format: cell-based
[4] = Metabolic stability in human liver assessed as intrinsic clearance incubated for 5 to 30 mins by HPLC-MS/MS analysis; format: ADME, tissue-based; settings: liver (preparation not stated), time 5-30 min, read-out: CLH
[5] = Metabolic stability in human liver microsomes assessed as parent compound remaining measured at 60 mins by HPLC-MS/MS analysis; format: ADME, Microsome; settings: 1 h
[6] = Metabolic stability in human liver microsomes assessed as half life incubated for 5 to 30 mins by HPLC-MS/MS analysis; format: ADME, Microsome; settings: time 5-30 min; for t1/2: microsomes
Mus musculus [7] = assay: Antiinflammatory activity against imiquimod-induced Balb/c mouse skin inflammation model assessed as inhibition of IL-6 level at 20 mg/kg, po measured for 13 days; format: functional; design: scale not given: the % may be the effect or the level left; settings: time 13 day
[8] = Solubility of compound in aqueous buffer at pH 7.4; format: physicochemical
Mus musculus [9] = assay: Antiinflammatory activity against imiquimod-induced Balb/c mouse skin inflammation model assessed as inhibition of IL-17A level at 20 mg/kg, po measured for 13 days; format: functional; design: scale not given: the % may be the effect or the level left; settings: time 13 day
Mus musculus [10] = assay: Antiinflammatory activity against imiquimod-induced Balb/c mouse skin inflammation model assessed as reduction in severity index score at 20 mg/kg, po BID for 13 days; format: functional; design: scale not given: the % may be the effect or the level left; settings: time 13 day

SMILES	logD [2]	also measured
O=S(=O)(Nc1ccccc1C(F)(F)F)c1ccc2c(c1)C(O)CC(C1CCOCC1)O2 (centres undefined)	2.41	IC50 [1]: > 10 µM; IC50 [3]: > 10 µM
CCc1ccc(N(CC(F)(F)F)S(=O)(=O)c2ccc3c(c2)C(O)CC(C2CCOCC2)O3)cc1 (centres undefined)	3.88	
CC(C)CN(Cc1ccccc1C(F)(F)F)S(=O)(=O)c1ccc2c(c1)C(O)CC(C1CCOCC1)O2 (centres undefined)	4.23	
CC(C)CN(c1ccc(C#N)cc1)S(=O)(=O)c1ccc2c(c1)C(O)CC(C1CCOCC1)O2 (centres undefined)	3.07	CLint scaled [4]: 1520 mL/min/kg; Stability [5]: 0.3%; t1/2 [6]: 0.8 min
CCc1ccc(N(Cc2ccccc2)S(=O)(=O)c2ccc3c(c2)C(O)CC(C2CCOCC2)O3)cc1 (centres undefined)	4.68	
CC(C)CN(c1ccc(F)cc1F)S(=O)(=O)c1ccc2c(c1)C(O)CC(C1CCOCC1)O2 (centres undefined)	3.53	
O=S(=O)(c1ccc2c(c1)C(O)CC(C1CCOCC1)O2)N1CCCC1c1ccccc1C(F)(F)F (centres undefined)	3.41	CLint scaled [4]: 172 mL/min/kg; Stability [5]: 5.2%; t1/2 [6]: 7.6 min
CCc1ccc2c(c1)CC(C)CN2S(=O)(=O)c1ccc2c(c1)C(O)CC(C1CCOCC1)O2 (centres undefined)	3.68	
CCc1ccc(N(CC(C)C)S(=O)(=O)c2ccc(OCC3CCOCC3)c(CN)c2)cc1	3.25	
CC(C)CN(c1ccc(N(C)C)cc1)S(=O)(=O)c1ccc2c(c1)C(O)CC(C1CCOCC1)O2 (centres undefined)	3.51	
Cc1ccc(N(CC(C)C)S(=O)(=O)c2ccc3c(c2)C(O)CC(C2CCOCC2)O3)c(C)c1 (centres undefined)	4.19	
CCc1ccc(N(CC(C)C)S(=O)(=O)c2ccc3c(c2)CCC(C2CCOCC2)O3)cc1 (centres undefined)	5.38	
Cc1cc(C(O)(C(F)(F)F)C(F)(F)F)ccc1N(CC(C)C)S(=O)(=O)c1ccc2c(c1)C(O)CC(C1CCOCC1)O2 (centres undefined)	4.37	
CCc1ccc(N(CC(C)C)S(=O)(=O)c2ccc3c(c2)C(OC)CC(C2CCOCC2)O3)cc1 (centres undefined)	4.69	
CCS(=O)(=O)c1ccc(CN(CC(C)C)S(=O)(=O)c2ccc3c(c2)C(O)CC(C2CCOCC2)O3)nc1 (centres undefined)	1.42	IC50 [1]: > 10 µM; IC50 [3]: > 10 µM
CC(C)CN(c1ccccc1C(F)(F)F)S(=O)(=O)c1ccc2c(c1)C(O)CC(C1CCOCC1)O2 (centres undefined)	4.14	
CCc1ccc(N(CC(C)C)S(=O)(=O)c2ccc3c(c2)C(O)CC(C2CCN(S(C)(=O)=O)CC2)O3)cc1 (centres undefined)	3.22	
CCc1ccc(N(CC(C)C)S(=O)(=O)c2ccc(OCC3CCOCC3)c3c2CCCC3O)cc1 (centres undefined)	4.95	
CC(C)CN(C1CCc2ccc(F)cc21)S(=O)(=O)c1ccc2c(c1)C(O)CC(C1CCOCC1)O2 (centres undefined)	3.94	
CC(C)CN(c1ccccc1F)S(=O)(=O)c1ccc2c(c1)C(O)CC(C1CCOCC1)O2 (centres undefined)	3.39	
CCc1ccc(N(CC(C)C)S(=O)(=O)c2ccc3c(c2)C(O)C[C@H](C2CCOCC2)O3)cc1 (some centres undefined)	4.12	
Cc1ccc(N(C2CCC2)S(=O)(=O)c2ccc3c(c2)C(O)CC(C2CCOCC2)O3)c(C)c1 (centres undefined)	3.77	
CC(C)CN(c1cccc(F)c1)S(=O)(=O)c1ccc2c(c1)C(O)CC(C1CCOCC1)O2 (centres undefined)	3.39	

SMILES	logD [2]	also measured
CCc1ccc(N(CC(C)C)S(=O)(=O)c2ccc3c(c2)C(OC2CCCCC2)CC(C2CCOCC2)O3)cc1 (centres undefined)	6.28	
CCc1ccc(N(CC(C)C)S(=O)(=O)c2ccc3c(c2)CCC3OC2CCOCC2)cc1 (centres undefined)	4.96	
CCc1ccc(N(C2COC2)S(=O)(=O)c2ccc3c(c2)C(O)CC(C2CCOCC2)O3)cc1 (centres undefined)	2.63	
CCc1ccc(N(CC(C)C)S(=O)(=O)c2ccc3c(c2)C(O)CC(C(C)C2CCOCC2)O3)cc1 (centres undefined)	5.04	
O=S(=O)(c1ccc2c(c1)C(O)CC(C1CCOCC1)O2)N1CCC(c2ccccc2)CC1 (centres undefined)	2.63	IC50 [1]: > 10 µM; IC50 [3]: > 10 µM
CCc1ccc(N(CC(C)C)S(=O)(=O)c2ccc(OCC3CCOCC3)c3c2CCC3O)cc1 (centres undefined)	4.55	
CCc1ccc(N(CC(C)C)S(=O)(=O)c2ccc3c(c2)C(O)CC(C2CCOCC2)O3)cc1 (centres undefined)	4.12	CLint scaled [4]: 330 mL/min/kg; half-life ([6]; liver microsomes): 222 min
CCc1ccc(N(CC(C)C)S(=O)(=O)c2ccc3nc(C4CCOCC4)cc(O)c3c2)cc1	4.97	
CC(C)CN(c1ccc(F)cc1)S(=O)(=O)c1ccc2c(c1)C(O)CC(C1CCOCC1)O2 (centres undefined)	3.39	
CCc1ccc(N(CC(C)C)S(=O)(=O)c2ccc3c(c2)C(O)C[C@@H](C2CCOCC2)O3)cc1 (some centres undefined)	4.12	
CCc1ccc(N(CC(C)C)S(=O)(=O)c2ccc3c(c2)C=CC(C2CCOCC2)O3)cc1 (centres undefined)	5.52	
CCc1ccc(N(CC(C)C)S(=O)(=O)c2ccc3c(c2)C(C)CC(C2CCOCC2)O3)cc1 (centres undefined)	5.71	
CCc1ccc(N(CC(C)C)S(=O)(=O)c2ccc3c(c2)C(N)CC(C2CCOCC2)O3)cc1 (centres undefined)	3.08	
CCc1ccc(N(CC2CCC2)S(=O)(=O)c2ccc3c(c2)C(O)CC(C2CCOCC2)O3)cc1 (centres undefined)	4.01	
CCc1ccc(N(CC(C)C)S(=O)(=O)c2ccc(OCC3CCOCC3)c(CO)c2)cc1 [GSK2981278]	4.1	Activity (Mus musculus [7]): 59.4%; solubility [8]: 2.12 µg/mL (≈ 4.59 µM); CLint scaled [4]: 1610 mL/min/kg; Activity (Mus musculus [9]): 82.2%; Stability [5]: 0.2%; Activity (Mus musculus [10]): 61.5%; t1/2 [6]: 0.8 min
CCc1ccc(N(CC(C)C)S(=O)(=O)c2ccc3c(c2)C(O)CC(C2CCN(C(=O)C4CCCC4)CC2)O3)cc1 (centres undefined)	5.04	
CCc1ccc(N(CC(C)C)S(=O)(=O)c2ccc3c(c2)C(O)CC(C2CCNCC2)O3)cc1 (centres undefined)	1.04	
CCc1ccc(N(CC(C)C)S(=O)(=O)c2ccc3c(c2)C(O)CC(C2CCN(C)CC2)O3)cc1 (centres undefined)	2.67	
CCc1ccc(NS(=O)(=O)c2ccc3c(c2)C(O)CC(C2CCOCC2)O3)cc1 (centres undefined)	2.59	
CC(C)CN(c1cc2ccccc2s1)S(=O)(=O)c1ccc2c(c1)C(O)CC(C1CCOCC1)O2 (centres undefined)	3.92	CLint scaled [4]: 53.7 mL/min/kg; Stability [5]: 28.5%; t1/2 [6]: 25.2 min
CCc1ccc(N(CC(C)C)S(=O)(=O)c2ccc3c(c2)C(C)(O)CC(C2CCOCC2)O3)cc1 (centres undefined)	4.19	
CCc1ccc(N(CC(C)C)S(=O)(=O)c2ccc3c(c2)C(O)CC(CC2CCOCC2)O3)cc1 (centres undefined)	4.44	
